Assay results from US10344060B2 (priority 2013, dated 2019).
Like-named read-outs stand apart in the source and are kept apart here.

Biological target: hNav1.7 (Homo sapiens, UniProt Q15858)
Assay: cell-based
Assay type: cell-based
Conditions: for IC50: read-out: PX hNav1.7 Tonic IC50
[1] = Table 12, PatchXpress, tonic block
[2] = ratio of PX tonic IC50 values, Table 11

Sequence of hNav1.7 (Q15858 whole entry): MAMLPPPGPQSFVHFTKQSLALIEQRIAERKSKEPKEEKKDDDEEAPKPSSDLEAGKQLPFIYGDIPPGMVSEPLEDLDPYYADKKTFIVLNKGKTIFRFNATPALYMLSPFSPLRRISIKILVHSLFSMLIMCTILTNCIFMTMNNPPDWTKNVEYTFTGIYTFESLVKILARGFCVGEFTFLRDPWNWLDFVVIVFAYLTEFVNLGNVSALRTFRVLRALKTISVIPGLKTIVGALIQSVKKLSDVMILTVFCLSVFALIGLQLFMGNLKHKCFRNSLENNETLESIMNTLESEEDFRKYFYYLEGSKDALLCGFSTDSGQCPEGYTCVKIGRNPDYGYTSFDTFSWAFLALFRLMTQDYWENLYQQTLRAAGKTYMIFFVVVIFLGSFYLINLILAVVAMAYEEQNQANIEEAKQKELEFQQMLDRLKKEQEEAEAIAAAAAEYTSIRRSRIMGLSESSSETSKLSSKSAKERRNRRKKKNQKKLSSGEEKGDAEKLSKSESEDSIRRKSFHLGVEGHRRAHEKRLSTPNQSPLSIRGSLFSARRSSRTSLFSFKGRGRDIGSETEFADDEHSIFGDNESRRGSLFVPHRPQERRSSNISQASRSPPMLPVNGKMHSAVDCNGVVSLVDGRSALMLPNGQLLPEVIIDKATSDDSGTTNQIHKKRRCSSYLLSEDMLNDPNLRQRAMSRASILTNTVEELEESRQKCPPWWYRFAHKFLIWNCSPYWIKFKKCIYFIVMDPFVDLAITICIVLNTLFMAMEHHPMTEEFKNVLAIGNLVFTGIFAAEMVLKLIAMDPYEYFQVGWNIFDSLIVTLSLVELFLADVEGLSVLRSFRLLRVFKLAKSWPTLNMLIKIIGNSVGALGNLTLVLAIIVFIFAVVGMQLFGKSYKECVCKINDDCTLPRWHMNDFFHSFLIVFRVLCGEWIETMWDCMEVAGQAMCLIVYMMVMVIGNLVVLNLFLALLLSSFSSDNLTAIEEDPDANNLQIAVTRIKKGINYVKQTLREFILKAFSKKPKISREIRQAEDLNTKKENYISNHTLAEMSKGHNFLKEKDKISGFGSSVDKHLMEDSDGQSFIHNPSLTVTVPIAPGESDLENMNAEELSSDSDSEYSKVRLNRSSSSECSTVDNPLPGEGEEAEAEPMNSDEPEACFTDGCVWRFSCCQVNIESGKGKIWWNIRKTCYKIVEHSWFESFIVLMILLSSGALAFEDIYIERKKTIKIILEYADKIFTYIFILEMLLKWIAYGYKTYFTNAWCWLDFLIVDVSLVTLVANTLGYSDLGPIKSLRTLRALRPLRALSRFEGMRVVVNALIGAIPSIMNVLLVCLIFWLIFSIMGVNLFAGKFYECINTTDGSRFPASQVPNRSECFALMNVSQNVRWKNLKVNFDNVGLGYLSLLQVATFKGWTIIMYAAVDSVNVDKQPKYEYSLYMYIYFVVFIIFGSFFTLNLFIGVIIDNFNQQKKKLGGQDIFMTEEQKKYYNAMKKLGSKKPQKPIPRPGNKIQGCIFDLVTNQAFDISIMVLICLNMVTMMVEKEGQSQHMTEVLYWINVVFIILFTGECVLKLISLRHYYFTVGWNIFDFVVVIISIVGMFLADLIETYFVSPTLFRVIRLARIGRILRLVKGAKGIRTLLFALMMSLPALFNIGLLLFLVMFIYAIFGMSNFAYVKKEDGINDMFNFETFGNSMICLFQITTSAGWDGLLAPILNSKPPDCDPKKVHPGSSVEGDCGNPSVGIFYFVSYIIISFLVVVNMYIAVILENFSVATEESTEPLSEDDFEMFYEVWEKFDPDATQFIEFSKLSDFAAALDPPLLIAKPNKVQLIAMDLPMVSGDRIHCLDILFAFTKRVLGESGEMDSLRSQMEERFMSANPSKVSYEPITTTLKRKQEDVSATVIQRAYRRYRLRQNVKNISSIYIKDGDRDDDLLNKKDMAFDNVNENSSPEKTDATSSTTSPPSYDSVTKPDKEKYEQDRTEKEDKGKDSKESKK

| SMILES | IC50 [1] [nM] | further results |
| --- | --- | --- |
| C#CC[C@H](N)C(=O)N[C@@H](Cc1ccc(O)cc1)C(=O)N[C@H]1CSSC[C@@H]2NC(=O)[C@@H]3CSSC[C@@H](C(=O)N[C@@H](CCCNC(=N)N)C(=O)N[C@@H](CCCCN)C(=O)N[C@@H](Cc4c[nH]cn4)C(=O)N[C@H](C(N)=O)[C@@H](C)CC)NC(=O)[C@H](Cc4c[nH]c5ccccc45)NC(=O)[C@H](CC(C)C)NC(=O)[C@H](CCCCN)NC(=O)[C@H](CSSC[C@H](NC(=O)[C@H]([C@@H](C)O)NC(=O)[C@H](Cc4c[nH]c5ccccc45)NC(=O)[C@H](CCCC)NC(=O)[C@H](Cc4c[nH]c5ccccc45)NC(=O)[C@H](CCCCN)NC(=O)[C@H](CCC(N)=O)NC1=O)C(=O)N[C@@H](CC(=O)O)C(=O)N[C@@H](CO)C(=O)N[C@@H](CCCCN)C(=O)N[C@@H](CCCNC(=N)N)C(=O)N[C@@H](C)C(=O)N3)NC(=O)[C@H](CCCNC(=N)N)NC(=O)[C@H](CC(C)C)NC(=O)CNC(=O)[C@H](CCC(=O)O)NC2=O [compound 652] | 0.371 | – |
| C#CC[C@H](N)C(=O)N[C@@H](Cc1ccc(O)cc1)C(=O)N[C@H]1CSSC[C@@H]2NC(=O)[C@@H]3CSSC[C@@H](C(=O)N[C@@H](CCCNC(=N)N)C(=O)N[C@@H](CCCCN)C(=O)N[C@@H](CCC(=O)O)C(=O)N[C@H](C(N)=O)[C@@H](C)CC)NC(=O)[C@H](Cc4c[nH]c5ccccc45)NC(=O)[C@H](CCC)NC(=O)[C@H](CCCCN)NC(=O)[C@H](CSSC[C@H](NC(=O)[C@H]([C@@H](C)O)NC(=O)[C@H](Cc4c[nH]c5ccccc45)NC(=O)[C@H](CCCC)NC(=O)[C@H](Cc4c[nH]c5ccccc45)NC(=O)[C@H](CCCCN)NC(=O)[C@H](CCC(N)=O)NC1=O)C(=O)N[C@@H](CC(=O)O)C(=O)N[C@@H](CO)C(=O)N[C@@H](CCCCN)C(=O)N[C@@H](CCCNC(=N)N)C(=O)N[C@@H](C)C(=O)N3)NC(=O)[C@H](CCCNC(=N)N)NC(=O)[C@H](CC(C)C)NC(=O)CNC(=O)[C@H](CCC(=O)O)NC2=O [compound 857] | 3.03 | – |
| CCCC[C@@H]1NC(=O)[C@H](Cc2c[nH]c3ccccc23)NC(=O)[C@H](CCCCN)NC(=O)[C@H](CCC(N)=O)NC(=O)[C@@H](NC(=O)[C@H](Cc2ccc(O)cc2)NC(=O)[C@@H](N)CC#N)CSSC[C@@H]2NC(=O)[C@@H]3CSSC[C@@H](C(=O)N[C@@H](CCCNC(=N)N)C(=O)N[C@@H](CCCCN)C(=O)N[C@@H](CCC(=O)O)C(=O)N[C@H](C(N)=O)[C@@H](C)CC)NC(=O)[C@H](Cc4c[nH]c5ccccc45)NC(=O)[C@H](CC(C)C)NC(=O)[C@H](CCCCN)NC(=O)[C@H](CSSC[C@H](NC(=O)[C@H]([C@@H](C)O)NC(=O)[C@H](Cc4c[nH]c5ccccc45)NC1=O)C(=O)N[C@@H](CC(=O)O)C(=O)N[C@@H](CO)C(=O)N[C@@H](CCCCN)C(=O)N[C@@H](CCCNC(=N)N)C(=O)N[C@@H](C)C(=O)N3)NC(=O)[C@H](CCCNC(=N)N)NC(=O)[C@H](CC(C)C)NC(=O)CNC(=O)[C@H](Cc1cn(CCCCCCCCCCCCCCC(=O)O)nn1)NC2=O [compound 895] | – | IC50: 260 nM |
| C#CC[C@H](N)C(=O)N[C@@H](Cc1ccc(O)cc1)C(=O)N[C@H]1CSSC[C@@H]2NC(=O)[C@@H]3CSSC[C@@H](C(=O)N[C@@H](CCCNC(=N)N)C(=O)N[C@@H](CCCCN)C(=O)N[C@@H](CCC(=O)O)C(=O)N[C@H](C(N)=O)[C@@H](C)CC)NC(=O)[C@H](Cc4c[nH]c5ccccc45)NC(=O)[C@H](CC(C)C)NC(=O)[C@H](CCCCN)NC(=O)[C@H](CSSC[C@H](NC(=O)[C@H]([C@@H](C)O)NC(=O)[C@H](Cc4cccc5ccccc45)NC(=O)[C@H](CCCC)NC(=O)[C@H](Cc4c[nH]c5ccccc45)NC(=O)[C@H](CCCCN)NC(=O)[C@H](CCC(N)=O)NC1=O)C(=O)N[C@@H](CC(=O)O)C(=O)N[C@@H](CO)C(=O)N[C@@H](CCCCN)C(=O)N[C@@H](CCCNC(=N)N)C(=O)N[C@@H](C)C(=O)N3)NC(=O)[C@H](CCCNC(=N)N)NC(=O)[C@H](CC(C)C)NC(=O)CNC(=O)[C@H](CCC(=O)O)NC2=O [compound 846] | 825 | – |
| C#CC[C@H](N)C(=O)N[C@@H](Cc1ccc(O)cc1)C(=O)N[C@H]1CSSC[C@@H]2NC(=O)[C@@H]3CSSC[C@@H](C(=O)N[C@@H](CCCNC(=N)N)C(=O)N[C@@H](CCCCN)C(=O)N[C@@H](CCC(=O)O)C(=O)N[C@H](C(N)=O)[C@@H](C)CC)NC(=O)[C@H](Cc4c[nH]c5ccccc45)NC(=O)[C@H](CC(C)C)NC(=O)[C@H](CCCCN)NC(=O)[C@H](CSSC[C@H](NC(=O)[C@H]([C@@H](C)O)NC(=O)[C@H](Cc4c[nH]c5ccccc45)NC(=O)[C@H](CCCC)NC(=O)[C@H](Cc4c[nH]c5ccc(Br)cc45)NC(=O)[C@H](CCCCN)NC(=O)[C@H](CCC(N)=O)NC1=O)C(=O)N[C@@H](CC(=O)O)C(=O)N[C@@H](CO)C(=O)N[C@@H](CCCCN)C(=O)N[C@@H](CCCNC(=N)N)C(=O)N[C@@H](C)C(=O)N3)NC(=O)[C@H](CCCNC(=N)N)NC(=O)[C@H](CC(C)C)NC(=O)CNC(=O)[C@H](CCC(=O)O)NC2=O [compound 845] | 53.5 | – |
| C#CC[C@@H]1NC(=O)[C@@H]2CSSC[C@H](NC(=O)[C@@H](N)CC#N)C(=O)N[C@@H](CCC(N)=O)C(=O)N[C@@H](CCCCN)C(=O)N[C@@H](Cc3c[nH]c4ccccc34)C(=O)N[C@@H](CCCC)C(=O)N[C@@H](Cc3c[nH]c4ccccc34)C(=O)N[C@@H]([C@@H](C)O)C(=O)N[C@H]3CSSC[C@H](NC(=O)[C@H](CCCNC(=N)N)NC(=O)[C@H](CC(C)C)NC(=O)CNC1=O)C(=O)N[C@@H](CCC(N)=O)C(=O)N[C@@H](CC(C)C)C(=O)N[C@@H](Cc1c[nH]c4ccccc14)C(=O)N[C@H](C(=O)N[C@@H](CCCNC(=N)N)C(=O)N[C@@H](CCCCN)C(=O)N[C@@H](CCC(=O)O)C(=O)N[C@H](C(N)=O)[C@@H](C)CC)CSSC[C@H](NC(=O)[C@H](C)NC(=O)[C@H](CCCNC(=N)N)NC(=O)[C@H](CCCCN)NC(=O)[C@H](CO)NC(=O)[C@H](CC(=O)O)NC3=O)C(=O)N2 [compound 1680] | 47.6 | – |
| C#CC[C@H](N)C(=O)N[C@@H](Cc1ccc(O)cc1)C(=O)N[C@H]1CSSC[C@@H]2NC(=O)[C@@H]3CSSC[C@@H](C(=O)N[C@@H](CCCNC(=N)N)C(=O)N[C@@H](CCCCN)C(=O)N[C@@H](CCC(=O)O)C(=O)N[C@H](C(N)=O)[C@@H](C)CC)NC(=O)[C@H](Cc4c[nH]c5ccccc45)NC(=O)[C@H](CC(C)C)NC(=O)[C@H](CCCCN)NC(=O)[C@H](CSSC[C@H](NC(=O)[C@H]([C@@H](C)O)NC(=O)[C@H](Cc4c[nH]c5ccccc45)NC(=O)[C@H](CCCC)NC(=O)[C@H](Cc4c[nH]c5ccccc45)NC(=O)[C@H](CCC(N)=O)NC(=O)[C@H](CCC(N)=O)NC1=O)C(=O)N[C@@H](CC(=O)O)C(=O)N[C@@H](CO)C(=O)N[C@@H](CCCCN)C(=O)N[C@@H](CCCNC(N)=O)C(=O)N[C@@H](C)C(=O)N3)NC(=O)[C@H](CCCNC(=N)N)NC(=O)[C@H](CC(C)C)NC(=O)CNC(=O)[C@H](CCC(=O)O)NC2=O [compound 807] | 20.9 | – |
| CC[C@H](C)[C@H](NC(=O)[C@H](Cc1ccc(O)cc1)NC(=O)[C@H](CCCCN)NC(=O)[C@H](CCCNC(=N)N)NC(=O)[C@@H]1CSSC[C@@H]2NC(=O)[C@H](C)NC(=O)[C@H](CCCNC(=N)N)NC(=O)[C@H](CCCCN)NC(=O)[C@H](CO)NC(=O)[C@H](CC(=O)O)NC(=O)[C@@H]3CSSC[C@H](NC(=O)[C@H](CCC(=O)O)NC(=O)[C@H](CC(C)C)NC(=O)CNC(=O)[C@H](CCC(=O)O)NC(=O)[C@H](CSSC[C@H](NC(=O)[C@@H](N)CCC(=O)O)C(=O)N[C@@H](CCC(N)=O)C(=O)N[C@@H](CCCCN)C(=O)N[C@@H](Cc4c[nH]c5ccccc45)C(=O)N[C@@H](CCSC)C(=O)N[C@@H](Cc4c[nH]c5ccccc45)C(=O)N[C@@H]([C@@H](C)O)C(=O)N3)NC2=O)C(=O)N[C@@H](CCCCN)C(=O)N[C@@H](CC(C)C)C(=O)N[C@@H](Cc2c[nH]c3ccccc23)C(=O)N1)C(N)=O [compound 277] | – | Nav1.4/Nav1.7 [2]: 171; Nav1.5/Nav1.7 [2]: >1818 |
| C#CC[C@H](N)C(=O)N[C@@H](Cc1ccc(O)cc1)C(=O)N[C@H]1CSSC[C@@H]2NC(=O)[C@@H]3CSSC[C@@H](C(=O)N[C@@H](CCCNC(=N)N)C(=O)N[C@@H](CCCCN)C(=O)NCC(=O)N[C@H](C(N)=O)[C@@H](C)CC)NC(=O)[C@H](Cc4c[nH]c5ccccc45)NC(=O)[C@H](CC(C)C)NC(=O)[C@H](CCCCN)NC(=O)[C@H](CSSC[C@H](NC(=O)[C@H]([C@@H](C)O)NC(=O)[C@H](Cc4c[nH]c5ccccc45)NC(=O)[C@H](CCCC)NC(=O)[C@H](Cc4c[nH]c5ccccc45)NC(=O)[C@H](CCCCN)NC(=O)[C@H](CCC(N)=O)NC1=O)C(=O)N[C@@H](CC(=O)O)C(=O)N[C@@H](CO)C(=O)N[C@@H](CCCCN)C(=O)N[C@@H](CCCNC(=N)N)C(=O)N[C@@H](C)C(=O)N3)NC(=O)[C@H](CCCNC(=N)N)NC(=O)[C@H](CC(C)C)NC(=O)CNC(=O)[C@H](CCC(=O)O)NC2=O [compound 651] | 3.14 | – |
| C#CC[C@H](N)C(=O)N[C@@H](Cc1ccc(O)cc1)C(=O)N[C@H]1CSSC[C@@H]2NC(=O)[C@@H]3CSSC[C@@H](C(=O)N[C@@H](CCCNC(=N)N)C(=O)N[C@@H](CCCCN)C(=O)N[C@@H](CCC(=O)O)C(=O)N[C@H](C(N)=O)[C@@H](C)CC)NC(=O)[C@H](Cc4c[nH]c5ccccc45)NC(=O)[C@H](CC(C)C)NC(=O)[C@H](CCC(N)=O)NC(=O)[C@H](CSSC[C@H](NC(=O)[C@H]([C@@H](C)O)NC(=O)[C@H](Cc4c[nH]c5ccccc45)NC(=O)[C@H](CCCC)NC(=O)[C@H](Cc4c[nH]c5ccccc45)NC(=O)[C@H](CCCCN)NC(=O)[C@H](CCC(N)=O)NC1=O)C(=O)N[C@@H](CC(=O)O)C(=O)N[C@@H](CO)C(=O)N[C@@H](CCCCN)C(=O)N[C@@H](CCCNC(=N)N)C(=O)N[C@@H](C)C(=O)N3)NC(=O)[C@H](CCCNC(=N)N)NC(=O)[C@H](CC(C)C)NC(=O)CNC(=O)[C@H](CCC(=O)O)NC2=O [compound 804] | 35.3 | – |
